# In patent US5919784A, “Heterocyclic aminomethyl compounds” (Adir Et Compagnie, priority 1996, dated 1999):
# Structures can show the parent of a compound that is named as a salt.
# How the values were obtained:
# D4 receptors = settings: literature; cited from earlier work
# human D4.4 receptor = biological target: T1, human D4.4 receptor (Homo sapiens, UniProt P21917); test: Antagonism at human D4.4 receptors, [35S]GTPγS binding (G protein activation) stimulated by dopamine; assay type: biochemical; settings: antagonism of dopamine-stimulated [35S]GTPγS binding; antagonist preincubated with fixed concentration of dopamine 30 min; CHO membranes; read-out: Kb (antagonist potency constant)
# T1 construct: purchased Receptor Biology Inc. (Md., USA); host or cells: CHO cells (transfected), membranes
# T1 sequence (P21917 1-419): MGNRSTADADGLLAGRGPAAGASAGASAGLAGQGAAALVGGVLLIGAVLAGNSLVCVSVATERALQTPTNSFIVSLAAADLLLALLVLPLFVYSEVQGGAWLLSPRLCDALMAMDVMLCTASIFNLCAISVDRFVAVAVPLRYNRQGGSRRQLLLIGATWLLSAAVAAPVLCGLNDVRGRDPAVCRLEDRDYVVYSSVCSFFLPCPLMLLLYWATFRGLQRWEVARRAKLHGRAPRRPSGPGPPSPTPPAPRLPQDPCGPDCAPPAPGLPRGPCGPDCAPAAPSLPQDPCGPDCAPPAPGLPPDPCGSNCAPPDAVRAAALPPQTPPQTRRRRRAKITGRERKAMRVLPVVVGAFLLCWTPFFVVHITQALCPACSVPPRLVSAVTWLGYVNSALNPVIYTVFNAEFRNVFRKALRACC
# Experimental: The efficacy was determined by measuring the activation of G proteins by stimulating the binding of [^35 S]GTPγS (NEN, Les Ulis, France). The membranes prepared from CHO cells transfected with the human D4.4 receptor were purchased from Receptor Biology Inc. (Md., USA). The membranes (50 μg of membrane protein) are incubated in triplicate with 0.1 nM [^35 S]GTPγS and the cold ligand in a final volume of 0.5 ml for 20 min at 25° C. The incubation buffer contains 20 mM HEPES (pH 7.4), 3 μM GDP, 3 mM MgCl2 and 100 mM NaCl. At the end of the incubation, the incubation medium is filtered through WHATMAN GF/B filters impregnated with water and washed three times with 2 ml of cooled buffer. The radioactivity retained on the filters is determined by liquid scintillation counting. The binding isotherms are analyzed by nonlinear regression using `PRISM` software (GraphPad Software Inc., S. Diego, USA) to determine EC50 and efficacy (Emax) values. The efficacy is expressed as a percentage of the stimulation of the binding of [^35 S]GTPγS induced by dopamine.
# For the tests of antagonism, the membranes are preincubated with the antagonist at a fixed concentration of dopamine for 30 min before adding the [^35 S]GTPγS. […]
# in which [Antagonist] is the antagonist concentration and EC50 is the EC50 determined in the absence of antagonist (dopamine alone).
Kb (human D4.4 receptor) [nM],Compound,affinity for the D4 receptors (in words) (D4 receptors)
,CN1CCN(C2=Nc3cc(Cl)ccc3Nc3ccccc32)CC1 [clozapine],high affinity
,NC[C@H](O)c1ccc(O)c(O)c1 [noradrenaline],high affinity
2.39 ± 1.1,"COc1ccccc1N1CCN(Cc2ccc3c(c2)sc(=O)n3C)CC1 [Example 1, 3-METHYL-6-[(4-(2-METHOXYPHENYL)-1-PIPERAZINYL)METHYL]-BENZOTHIAZOLINONE HYDROCHLORIDE]",
16.1 ± 5,"Cn1c(=O)sc2cc(CN3CCN(c4ccccc4F)CC3)ccc21 [Example 3, 3-METHYL-6-[(4-(2-FLUOROPHENYL)-1-PIPERAZINYL)METHYL]-BENZOTHIAZOLINONE]",
